What all share (type): in vivo
For assay [1], the system named is French beans (Phaseolus vulgaris). The experiment in a line: Soil application to French beans, effects on flowering (BBCH) and plant physiology (NDVI, NIR). Also noted: NIR (Near infrared band reflectance): unit not given here. The following applies: 0.01 mg AI per plant drench, mean of 4 reps; for BBCH (plant growth stage): 15DAA, check 57; for NDVI (Normalized difference vegetative index) / NIR (Near infrared band reflectance): 25DAA; for NDVI (Normalized difference vegetative index): check 0.431; for NIR (Near infrared band reflectance): check 4.32. The procedure:
Four two week old French bean plants were treated with 0.01 mg Al per plant as soil application (drench). Plants were kept under glasshouse conditions at 22° C. with a photo-period of 14 h. 15DAA the development stage of blossoms was assessed. 25DAA the photosynthetic capacity of plants (NDVI, NIR) was measured.

Assay [2] relates to Spring-wheat. The experiment in a line: Foliar application to spring-wheat, effects on water consumption, plant height. The following applies: 26 days after spray; for water consumption: foliar spray 50 ga/ha (EC050) 21 days after sowing, no watering after spray; for plant height: foliar spray 50 ga/ha (EC050). Here is the method:
Wheat plants were grown in a climate chamber at 18° C., 14 h daytime and 10 h night, at 70% rel.humidity. Plants were sprayed 21 days after sowing with a 50 ga/ha of the test compound, formulated as a standard EC050. Water status was adjusted before spray for all pots and plants not watered anymore after spray. After growing further 26 days in the controlled environment the plant height, and water consumption was determined.

For assay [3], the system named is Soybeans (Glycine max). The experiment in a line: Foliar application to soybeans, effects on yield (number and size of pods, root parameters). The following applies: 68 g AI/ha foliar, 29DAA; for No. of root tips, Mean (in %) relative to check / Root length, Mean (in %) relative to check: WinRhizo; for Mean no. of pods per plant, only pods >20 mm: check 1.8; for Mean no. of pods per plant, all pods considered: check 5.4; for pod length - sum per trmt (mm), only pods >20 mm: check 276; for pod length - sum per trmt (mm), all pods considered: check 452. The procedure: Three week old soybean plants (5 replicates) were sprayed with respective test solutions. Test solutions contained the formulated test compound and the adjuvant Mero (0.1% v/v). Plants were kept under glasshouse conditions at 22° C. with a photo-period of 14 h. 29d after application the individual number and size of pods per plant were measured. Additionally, the overall root system of individual plants was scanned and analysed by the image analysis software ‘WinRhizo’ (Regent Instruments Inc., 2009). […] The average number of taller pods (related to number of seeds) was increased.

Assay [4] deals with Soybeans (Glycine max). The experiment in a line: Foliar application to soybeans, effects on water consumption, plant height, chlorophyll content. The conditions noted are these: soybean, 26 days after spray; for water consumption: foliar spray 100 ga/ha (EC050) 21 days after sowing, no watering after spray; for plant height / chlorophyll content: foliar spray 100 ga/ha (EC050); for chlorophyll content: third trifoliate-leaf. The procedure: Soybean plants were grown in a climate chamber at 22° C. during 14 h daytime and 20° C. during 10 h night at 70% rel.humidity. Plants were sprayed 21 days after sowing with a 100 ga/ha of the test compound, formulated as a standard EC050. Water status was adjusted befor spray for all pots, and plants not watered anymore after spray. After growing further 26 days in the controlled environment, the plant height, chlorophyll content of the third trifoliate-leaf, and water consumption was determined.

Assay [5] has as its system Soybeans (Glycine max). Nature of the assay: Soil application (drench) to soybeans in rhizoboxes, effects on root system and shoot. The following applies: 30DAA; for Stem thickness (mm) below respective leaf, Mean / leaf area (cm^2), Mean: 0.12 mg AI per plant drench. The procedure:
Three two-week old soybean plants were transplanted to ‘rhizoboxes’ (ca. 12 L soil volume). One day later 0.12 mg Al of compound T1.070, wherein G is CO2Et, were applied (drench) to each plant. Plants were kept under glasshouse conditions at 22° C. with a photo-period of 14 h. 30 DAA the entire root system per rhizobox was scanned and analysed by the image analysis software ‘WinRhizo’ (Regent Instruments Inc., 2009).

Assay [6] concerns Barley (Hordeum vulqare). The experiment in a line: Foliar application to barley, plant growth effects (plant height, tillers). The conditions noted are these: 12.5 ppm foliar, 9DAA; for av. tillers per plant: check 0. The procedure:
Five replicates (pots with three 10d old barley plants each) were sprayed with respective test solutions. Test solutions contained the formulated test compound and the adjuvant Mero (0.1% v/v). Plants were kept under glasshouse conditions at 22° C. with a photo period of 14 h. 9d after application the average plant height per replicate was measured and the number of tillers per replicate was counted. […] Additionally, the number of tillers were increased.

Setting [7] is: soybean, drench 0.12 mg AI per plant.
Where [8] appears, read: soybean, drench 0.12 mg AI per plant, entire root system per rhizobox, WinRhizo.

The results in this text go back to US20140018242A1, “METHOD OF CROP ENHANCEMENT” (SYNGENTA PARTICIPATIONS AG, priority 2010, published 2014).

Take `COCON1C(=O)C(c2cc(C)ccc2C)=C(O)C12CCN(OC)CC2` [Compound T20ii.030]: in assay [1], the “BBCH (plant growth stage)” value worked out at 58, the “NDVI (Normalized difference vegetative index)” value amounted to 0.427 and the “NIR (Near infrared band reflectance)” value is reported as 4.07.
As to `COCON1C(=O)C(c2c(C)cc(C)cc2C)=C(O)C12CCN(OC)CC2` [Compound T20ii.070], in assay [1], the “BBCH (plant growth stage)” value was 58, the “NDVI (Normalized difference vegetative index)” value amounted to 0.518 and the “NIR (Near infrared band reflectance)” value stood at 4.59.
`COCCON1C(=O)C(c2c(C)cc(C)cc2C)=C(O)C12CCN(OC)CC2` [Compound T22ii.070]: in assay [1], the “BBCH (plant growth stage)” value came out at 59, the “NDVI (Normalized difference vegetative index)” value was 0.471 and the “NIR (Near infrared band reflectance)” value is 4.18.
In assay [2], `CCOC(=O)OC1=C(c2c(C)cc(Cl)cc2C)C(=O)N(C)C12CCN(OC)CC2` [T1.067, wherein G is CO2Et] registered a water consumption of 219 ml/26 days and a plant height of 26.9 cm. In assay [3], the “No. of root tips, Mean (in %) relative to check” value is on record as 18.8%; the “Root length, Mean (in %) relative to check” value came to 16.1%; the “Mean no. of pods per plant, only pods >20 mm” value is on record as 3.4; the “Mean no. of pods per plant, all pods considered” value stood at 6.0. Moreover, in assay [3], the “pod length - sum per trmt (mm), only pods >20 mm” value is 545 mm and the “pod length - sum per trmt (mm), all pods considered” value is recorded as 682 mm. In assay [4], the water consumption is 376 ml/26 days, the plant height is recorded as 16.5 cm and the chlorophyll content turned out to be 43.4 reflectance.
In the case of `CCOC(=O)OC1=C(c2c(C)cc(C)cc2C)C(=O)N(C)C12CCN(OC)CC2` [T1.070, wherein G is CO2Et], the “Stem thickness (mm) below respective leaf, Mean” value (shortened to “Stem thickness”) in assay [5] (1st trifoliate leaf, untreated 2.04) came out at 2.39 mm. Moreover, the “leaf area (cm^2), Mean” value in assay [5] (1st trifoliate leaf, untreated 42.95) was 60.59 cm^2. For the same molecule, in assay [5] (1st true leaves, untreated 2.31), the “Stem thickness” value is 2.87 mm. In addition, the “leaf area (cm^2), Mean” value in assay [5] (1st true leaves, untreated 28.54) is reported as 39.82 cm^2. Also, the “Stem thickness” value in assay [5] (2nd trifoliate leaf, untreated 1.87) worked out at 2.09 mm. The “leaf area (cm^2), Mean” value in assay [5] (2nd trifoliate leaf, untreated 58.76) was 72.44 cm^2. The “Stem thickness” value in assay [5] (3rd trifoliate leaf, untreated 1.60) was 1.86 mm. Also, the “leaf area (cm^2), Mean” value in assay [5] (3rd trifoliate leaf, untreated 58.01) is 77.72 cm^2. The “Stem thickness” value in assay [5] (4th trifoliate leaf, untreated 1.11) came to 1.32 mm. Besides, in assay [5] (4th trifoliate leaf, untreated 18.09), the “leaf area (cm^2), Mean” value came out at 27.48 cm^2. In assay [5] (setting [7]), the “Shoot growth (plant growth)” value is given as “Enhanced plant growth was also observed by fortified shoot growth” and the “Visual impression of root system” value was “clearly enhanced root system”. In addition, in assay [5] (setting [8]), the “Root parameters relative to check: Length (cm), rel. to check (0%)” value is 41.3%; the “Root parameters relative to check: RootVolume (cm3), rel. to check (0%)” value is recorded as 52.2%; the “Root parameters relative to check: SurfaceArea (cm2), rel. to check (0%)” value is 46.6%; the “Root parameters relative to check: Tips, rel. to check (0%)” value is recorded as 63.1%. In assay [2], the water consumption was determined as 208 ml/26 days and the plant height came to 27.4 cm. Moreover, in assay [3], the “No. of root tips, Mean (in %) relative to check” value is 43.7%; the “Root length, Mean (in %) relative to check” value is recorded as 32.0%; the “Mean no. of pods per plant, only pods >20 mm” value is recorded as 3.2; the “Mean no. of pods per plant, all pods considered” value is on record as 5.8. For the same molecule, in assay [3], the “pod length - sum per trmt (mm), only pods >20 mm” value is 516 mm and the “pod length - sum per trmt (mm), all pods considered” value was 674 mm. In assay [4], this molecule had a water consumption of 393 ml/26 days, a plant height of 17.3 cm and a chlorophyll content of 39.9 reflectance.
As to `CCOC(=O)OC1=C(c2c(C)cc(Br)cc2C)C(=O)NC12CCN(OC)CC2` [T1iii.66, wherein G is CO2Et], in assay [6], the “av. plant height (cm)” value is given as 27.2 cm and the “av. tillers per plant” value worked out at 4.2.
For the molecule `CCOC(=O)OC1=C(c2c(C)cc(Cl)cc2C)C(=O)NC12CCN(OC)CC2` [T1iii.67, wherein G is CO2Et], in assay [6], the “av. plant height (cm)” value came out at 24.4 cm and the “av. tillers per plant” value is 3.8. In assay [2], this molecule had a water consumption of 218 ml/26 days and a plant height of 27.9 cm. Further, in assay [4], the water consumption is given as 379 ml/26 days, the plant height is reported as 16.5 cm and the chlorophyll content was 44.6 reflectance.
Consider `CCOC(=O)OC1=C(c2cc(C)ccc2C)C(=O)N(OCOC)C12CCN(OC)CC2` [T20ii.030, wherein G is CO2Et], for which, in assay [1], the “BBCH (plant growth stage)” value was determined as 59, the “NDVI (Normalized difference vegetative index)” value is listed as 0.522 and the “NIR (Near infrared band reflectance)” value is reported as 4.45.
On to `CCOC(=O)OC1=C(c2c(C)cc(C)cc2C)C(=O)N(OCOC)C12CCN(OC)CC2` [T20ii.070, wherein G is CO2Et], for which, in assay [1], the “BBCH (plant growth stage)” value is recorded as 59, the “NDVI (Normalized difference vegetative index)” value was 0.539 and the “NIR (Near infrared band reflectance)” value is 4.65.
